Read-outs that look alike come from different tables or passages of the source.
What was measured:
[1] = molecular target: T1, AChE (EC 3.1.1.7) from electric eel (Electrophorus electricus, UniProt O42275); experiment: biochemical; conditions: for SI (selectivity index, AChE IC50/BuChE IC50): eeAChE IC50 / eqBuChE IC50; for IC50: eeAChE, mean ± SEM of triplicate independent experiments
T1 construct: AChE (EC 3.1.1.7, Type VI-S, from electric eel, C3389); purchased Sigma-Aldrich C3389; host or cells: electric eel (natural source)
T1 sequence (O42275 24-633): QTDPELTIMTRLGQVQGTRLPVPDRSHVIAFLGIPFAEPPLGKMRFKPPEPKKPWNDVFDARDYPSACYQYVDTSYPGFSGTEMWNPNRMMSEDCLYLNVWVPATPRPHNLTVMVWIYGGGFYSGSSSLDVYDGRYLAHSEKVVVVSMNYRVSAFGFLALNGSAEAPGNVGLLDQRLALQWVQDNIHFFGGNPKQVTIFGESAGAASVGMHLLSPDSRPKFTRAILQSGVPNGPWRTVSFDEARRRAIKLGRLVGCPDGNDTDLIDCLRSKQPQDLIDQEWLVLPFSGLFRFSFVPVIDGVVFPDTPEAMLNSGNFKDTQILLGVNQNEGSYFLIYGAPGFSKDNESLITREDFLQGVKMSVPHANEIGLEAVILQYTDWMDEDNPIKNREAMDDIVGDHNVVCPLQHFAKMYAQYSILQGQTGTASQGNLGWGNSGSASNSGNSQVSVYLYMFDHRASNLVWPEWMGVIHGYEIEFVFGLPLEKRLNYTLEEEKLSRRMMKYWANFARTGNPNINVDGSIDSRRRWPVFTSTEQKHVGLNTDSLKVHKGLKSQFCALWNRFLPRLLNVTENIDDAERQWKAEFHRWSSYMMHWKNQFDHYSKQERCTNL
Description: (§1) AChE (EC 3.1.1.7, Type VI-S, from electric eel, C3389) and BuChE (EC 3.1.1.8, from equine serum, C0663), 5,5’-dithiobis (2-nitrobenzoic acid) (DTNB, D218200), acetylthiocholine iodide (ATC, A5751) and butyrylthiocholine iodide (BTC, B3253) used as substrates were obtained from Sigma-Aldrich (St. Louis, MO).
(§2) The inhibitory capacity of the synthesised compounds on AChE and BuChE biological activity in this paper were evaluated according to our previously reported method. Briefly, AChE/BuChE stock solution was diluted with 0.2 M phosphate buffer pH 8.0 to give 2.5 units/mL (for electrophorus electricus (eeAChE) and equine serum (eqBuChE)). ATC/BTC iodide solution (0.075 M) was dissolved in deionized water. […] The assay solution was prepared as follows: potassium dihydrogen phosphate (1.36 g, 10 mmol) was dissolved in 100 ml of water. The pH of the solution was then adjusted to 8.0 ± 0.1 with KOH. Stock solutions of the test samples were dissolved in ethanol to give a final concentration of 10 − 4^ M when diluted to the final volume of 3.32 ml. For each compound, a dilution series of five different concentrations 10 − 5–10 − 9^9 M were prepared.
(§3) For measurement, a cuvette containing 3 mL of phosphate buffer, 100 μL of eeAChE or eqBuChE, 100 μL of DTNB, and 100 μL of the test compound solution was added in sequence. The reaction was initiated by adding 20 μL of ATC or BTC and the solution was mixed immediately. […] For the reference value, 100 μL of water was replaced for the test compound solution. For the blank control, additional 100 μL of water was also replaced for the enzyme solution. The measurement of each concentration was assayed in triplicate. GraphPad Prism 5 (GraphPad Software, Inc., La Jolla, CA) was used for data processing. The inhibition curve was fitted by plotting percentage enzyme activity (100% for the reference) versus the logarithm of test compound concentration. The half maximal inhibitory concentration (IC50) values were calculated according to the curve and the data were shown in mean ± SEM.
(§4) Inhibitory activities were presented as IC50 (nM).

[2] = molecular target: T2, BuChE (EC 3.1.1.8) from horse serum (Equus caballus, UniProt P81908); experiment: biochemical; conditions: eqBuChE, mean ± SEM of triplicate independent experiments
T2 construct: BuChE (EC 3.1.1.8, from equine serum, C0663); purchased Sigma-Aldrich C0663; host or cells: equine serum (natural source)
T2 sequence (P81908 whole entry): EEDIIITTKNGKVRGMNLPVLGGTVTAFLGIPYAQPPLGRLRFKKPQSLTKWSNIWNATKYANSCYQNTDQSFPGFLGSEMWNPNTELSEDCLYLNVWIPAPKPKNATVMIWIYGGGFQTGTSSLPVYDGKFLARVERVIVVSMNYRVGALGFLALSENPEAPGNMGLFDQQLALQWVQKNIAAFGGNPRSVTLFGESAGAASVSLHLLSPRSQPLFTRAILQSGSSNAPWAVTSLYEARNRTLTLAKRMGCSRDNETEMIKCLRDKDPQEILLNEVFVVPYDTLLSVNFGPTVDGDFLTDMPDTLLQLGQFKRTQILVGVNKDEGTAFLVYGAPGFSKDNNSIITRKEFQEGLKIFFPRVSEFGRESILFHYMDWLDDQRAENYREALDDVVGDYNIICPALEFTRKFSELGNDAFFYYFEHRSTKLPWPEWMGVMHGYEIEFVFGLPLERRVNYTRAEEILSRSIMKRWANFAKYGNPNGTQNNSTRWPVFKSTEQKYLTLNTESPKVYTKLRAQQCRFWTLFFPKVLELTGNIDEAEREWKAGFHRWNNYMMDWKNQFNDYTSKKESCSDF
Description: as §1, §2, §3, §4

[3] = molecular target: T3, Aβ1–42 (Homo sapiens, UniProt P05067); experiment: Inhibition of self-induced Aβ1–42 aggregation (Thioflavin T assay); type: biochemical; conditions: ThT fluorescence, 24 h incubation, read-out: Inhibitory rate of compounds (25 μM) on self-induced Aβ1-42 aggregation
T3 construct: aliquots of 2 μL of Aβ1–42 (AS-64129–05 Anaspec Inc.); purchased Anaspec Inc. AS-64129–05
T3 sequence (P05067 672-713): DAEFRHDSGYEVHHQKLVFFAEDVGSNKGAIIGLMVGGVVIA
Description: Inhibitory effects of the compounds on self-induced Aβ1–42 aggregation were tested through a Thioflavin T (ThT)-(T3516, Sigma-Aldrich) binding assay.
The calculation of the inhibitory rate of Aβ1–42 self-induced aggregation was performed as the following equation: (1 − IFi/IFc) × 100%. IFi and IFc were the fluorescence intensities measured in the presence and absence of inhibitors, respectively, after subtracting the background fluorescence of the 5 mM ThT solution. Each compound was measured in triplicate.
A thioflavin T-based fluorometric assay was performed.

[4] = test system: adult male ICR mice; type: in vivo; conditions: serum, 3 mg/100 g body weight, mean ± SEM n = 6
Description: . Heparinised serum was obtained from the retrobulbar plexus 8, 22, and 36 h after the administration and were subjected to hepatotoxicity evaluation. The activity of aspartate aminotransferase (AST) and alanine aminotransferase (ALT), two indicators of liver damage, was determined by a commercial assay kit (EF551 and EF550 for ALT, EH027 and EF548 for AST, Wako, Japan). The data were analysed by Biochemical Analyzer (HITACHI 7020, Japan).
Mice were sacrificed 1 h after the collection of retrobulbar blood and livers were removed for morphological studies by using the immunohistochemical method. Two 3 mm sections of each liver extending from the hilus to the margin of the left lateral lobe were isolated using ultra-thin semiautomatic microtome (Leica RM2245, Germany) and placed in 10% buffered formaldehyde immediately, fixed for two days, and embedded together in one paraffin block by using paraffin embedding station (Leica EG1150H, Germany). Subsequently, 5 μm sections were prepared from these paraffin blocks. They were deparaffinated and stained with hematoxylin and eosin (H&E) for histopathological examinations.

[5] = test system: HepG2 cells; conditions: 24 h, MTT, mean ± SEM n = 3
Description: To determine the possible drug-induced hepatotoxicity, 10d and 10g were selected for preliminary hepatotoxicity evaluation. Heparinised serum was obtained after the treatment of the compounds at 8, 22, and 36 h, respectively. […] Additionally, immunohistochemical staining was performed on the liver tissues for the histopathological study.
Methods for Cell Viability Assay. The human hepatocellular HepG2 cells were […]
Cells were seeded into 96-well plates at a density of 3
37 °C for the following experiments. For cytotoxicity test, cells were treated with 0.05- […]
Cell viability was measured by 3-(4,5- dimethylthiazol-2-yl)-2,5-diphenyltetrazolium bromide (MTT) analysis. In brief, 15 µL of MTT was added into each well and incubated at 37 °C for 4 h. The […]
viability was calculated and presented by the percentage of vehicle-treated group.

[6] = test system: scopolamine-induced cognition-impaired adult ICR mice; experiment: Morris water maze in scopolamine-induced cognition-impaired mice; type: in vivo; conditions: 30 mg/kg oral, scopolamine 1 mg/kg i.p., mean ± SEM n = 6
Description: Behavioral studies were performed using the Morris water maze[25] according to our method reported previously. Adult male imprinting control region (ICR) mice (8–10 weeks old, weight 20–25 g) were obtained from the Yangzhou University Medical Center (Yangzhou, China). All animal handling and experimental protocols were approved by the Institutional Animal Care and Use Committee of the China Pharmaceutical University. Scopolamine hydrobromide was purchased from Aladdin Reagents (S107418, Shanghai, China).
A circular pool (120 cm in diameter, 60 cm height) which was fixed with an escape platform (10 cm diameter) and filled to a depth of 40 cm fresh water (kept at 25 °C) composed the water maze and this water maze placed in a lit room was used to evaluate the cognition function and memory capacity of mice according to our previously described method[24] . After five days of learning and memory training, a probe trial was performed on day 6. For the evaluation of cognitive function, each mouse was individually trained on a visible-platform (labeled by a small flag, 5 cm tall) for two days and was followed by a hidden-platform version (placed 1 cm below the surface of the water) of the water maze from day 3 to day 5. All mice were subjected to two training trials daily, each of which lasted for 90 s. The time for each mouse to find the platform (a successful escape) was recorded. […] On the last day (day 6), a probe trial was given to the mice in which the platform was removed from the pool and each mouse was allowed 90 s to search for the platform. The time the animals spent to reach the missing platform location and the number of times they crossed that location were recorded.
Data for the time of escape latency, the swimming trajectory, and the number of visual platform crossings were recorded by Panlab SMART 3.0 (Panlab, S.L.U, Spain) and GraphPad Prism 5 was used to evaluate the level of memory retention.

Row | Structure (SMILES) | SI (selectivity index, AChE IC50/BuChE IC50) [1] | IC50 [1] | IC50 [2] | further results
1 | COc1cc(/C=C/C(=O)NCCNc2c3c(nc4ccccc24)CCCC3)ccc1OCc1ccccc1 [Compound 10a, (E)-3–(4-(benzyloxy)-3-methoxyphenyl)-N-(2-((1,2,3,4-tetrahydroacridin-9-yl)amino)ethyl)acrylamide] | 0.4 | 92.2 ± 18.3 nM | 215 ± 39.5 nM | 
2 | COc1cc(/C=C/C(=O)NCCNc2c3c(nc4ccccc24)CCCC3)ccc1OCc1ccc(F)cc1 [Compound 10b, (E)-3–(4-((4-fluorobenzyl)oxy)-3-methoxyphenyl)-N-(2-((1,2,3,4-tetrahydroacridin-9-yl)amino)ethyl)acrylamide] | 0.7 | 115 ± 31.2 nM | 163 ± 16.6 nM | 
3 | COc1cc(/C=C/C(=O)NCCNc2c3c(nc4ccccc24)CCCC3)ccc1OCc1ccc(Cl)cc1 [Compound 10c, (E)-3–(4-((4-chlorobenzyl)oxy)-3-methoxyphenyl)-N-(2-((1,2,3,4-tetrahydroacridin-9-yl)amino)ethyl)acrylamide] | 1.6 | 101 ± 14.6 nM | 62.5 ± 9.9 nM | 
4 | COc1cc(/C=C/C(=O)NCCNc2c3c(nc4ccccc24)CCCC3)ccc1OCc1ccccc1C [Compound 10e, (E)-3–(3-methoxy-4-((2-methylbenzyl)oxy)phenyl)-N-(2-((1,2,3,4-tetrahydroacridin-9-yl)amino)ethyl)acrylamide] | 0.7 | 64.5 ± 7.4 nM | 98.6 ± 19.1 nM | 
5 | COc1cc(/C=C/C(=O)NCCNc2c3c(nc4ccccc24)CCCC3)ccc1OCc1cccc(C)c1 [Compound 10f, (E)-3–(3-methoxy-4-((3-methylbenzyl)oxy)phenyl)-N-(2-((1,2,3,4-tetrahydroacridin-9-yl)amino)ethyl)acrylamide] | 0.2 | 63.2 ± 13.5 nM | 257 ± 3.7 nM | 
6 | COc1cc(/C=C/C(=O)NCCNc2c3c(nc4ccccc24)CCCC3)ccc1OCc1ccc(C)cc1 [Compound 10h, (E)-3–(3-methoxy-4-((4-methylbenzyl)oxy)phenyl)-N-(2-((1,2,3,4-tetrahydroacridin-9-yl)amino)ethyl)acrylamide] | 0.9 | 140 ± 34.4 nM | 147 ± 22.4 nM | 
7 | COc1cc(/C=C/C(=O)NCCNc2c3c(nc4ccccc24)CCCC3)ccc1OCc1ccc(C(C)(C)C)cc1 [Compound 10i, (E)-3–(4-((4-(tert-butyl)benzyl)oxy)-3-methoxyphenyl)-N-(2-((1,2,3,4-tetrahydroacridin-9-yl)amino)ethyl)acrylamide] | 1.8 | 284 ± 59.2 nM | 158 ± 22.8 nM | 
8 | COc1cc(/C=C/C(=O)NCCNc2c3c(nc4ccccc24)CCCC3)ccc1OCc1ccc(C(F)(F)F)cc1 [Compound 10k, (E)-3–(3-methoxy-4-((4-(trifluoromethyl)benzyl)oxy)phenyl)-N-(2-((1,2,3,4-tetrahydroacridin-9-yl)amino)ethyl)acrylamide] | 2.4 | 129 ± 16.5 nM | 52.7 ± 6.3 nM | 
9 | COc1cccc(COc2ccc(/C=C/C(=O)NCCNc3c4c(nc5ccccc35)CCCC4)cc2OC)c1 [Compound 10l, (E)-3–(3-methoxy-4-((3-methoxybenzyl)oxy)phenyl)-N-(2-((1,2,3,4-tetrahydroacridin-9-yl)amino)ethyl)acrylamide] | 0.7 | 143 ± 40.1 nM | 195 ± 16.5 nM | 
10 | COc1ccc(COc2ccc(/C=C/C(=O)NCCNc3c4c(nc5ccccc35)CCCC4)cc2OC)cc1 [Compound 10m, (E)-3–(3-methoxy-4-((4-methoxybenzyl)oxy)phenyl)-N-(2-((1,2,3,4-tetrahydroacridin-9-yl)amino)ethyl)acrylamide] | 0.6 | 75.5 ± 12.8 nM | 134 ± 11.1 nM | 
11 | Oc1ccc(/C=C/c2cc(O)cc(O)c2)cc1 [Resveratrol, reference compound] |  |  |  | inhibition at 25 µM [3]: 45.7%
12 | Nc1c2c(nc3ccccc13)CCCC2 [Tacrine] |  |  |  | ALT ([4]; 8 h after i.g. administration): 31.8 ± 2.0 U/L; AST ([4]; 8 h after i.g. administration): 133.7 ± 9.0 U/L; ALT ([4]; 22 h after i.g. administration): 25.4 ± 2.8 U/L; AST ([4]; 22 h after i.g. administration): 124.3 ± 12.1 U/L; ALT ([4]; 36 h after i.g. administration): 25.1 ± 2.7 U/L; AST ([4]; 36 h after i.g. administration): 112.4 ± 11.4 U/L; Cell viability (% of vehicle) ([5]; HepG2, 25 µM): 106.2 ± 2.3 % of vehicle; Cell viability (% of vehicle) ([5]; HepG2, 125 µM): 97.2 ± 2.9 % of vehicle; Cell viability (% of vehicle) ([5]; HepG2, 250 µM): 58.9 ± 0.7 % of vehicle; Cell viability (% of vehicle) ([5]; HepG2, 500 µM): 22.7 ± 1.6 % of vehicle; Distance to target [6]: 725.64 ± 165.15 cm; Speed in virtual platform [6]: 15.78 ± 1.03 cm/s; Latency to target ([6]; probe trial): 25.85 ± 5.52 s

Source: publication PMC6010002, “Synthesis, pharmacology and molecular docking on multifunctional tacrine-ferulic acid hybrids as cholinesterase inhibitors against Alzheimer’s disease” (Journal of Enzyme Inhibition and Medicinal Chemistry, 2018)
